Where a name gives a salt, the structure may show the parent alone.
Experiments:
[1] = target: T1, human CGT (ceramide galactosyltransferase), CHO/CGT lysate (Homo sapiens, UniProt Q16880); assay: CGT enzyme assay, RapidFire/MS/MS readout (Table 1 ranges with one asterisk *); assay type: biochemical; conditions: RapidFire method (range with one asterisk *)
T1 construct: Full-length human CGT cDNA was cloned into the BamH1/Xho1 site of pcDNA3.1 (+); expressed in transfected cells; host or cells: Chinese hamster ovary (CHO) cells; lysate prepared with M-PER
T1 sequence (Q16880 21-541): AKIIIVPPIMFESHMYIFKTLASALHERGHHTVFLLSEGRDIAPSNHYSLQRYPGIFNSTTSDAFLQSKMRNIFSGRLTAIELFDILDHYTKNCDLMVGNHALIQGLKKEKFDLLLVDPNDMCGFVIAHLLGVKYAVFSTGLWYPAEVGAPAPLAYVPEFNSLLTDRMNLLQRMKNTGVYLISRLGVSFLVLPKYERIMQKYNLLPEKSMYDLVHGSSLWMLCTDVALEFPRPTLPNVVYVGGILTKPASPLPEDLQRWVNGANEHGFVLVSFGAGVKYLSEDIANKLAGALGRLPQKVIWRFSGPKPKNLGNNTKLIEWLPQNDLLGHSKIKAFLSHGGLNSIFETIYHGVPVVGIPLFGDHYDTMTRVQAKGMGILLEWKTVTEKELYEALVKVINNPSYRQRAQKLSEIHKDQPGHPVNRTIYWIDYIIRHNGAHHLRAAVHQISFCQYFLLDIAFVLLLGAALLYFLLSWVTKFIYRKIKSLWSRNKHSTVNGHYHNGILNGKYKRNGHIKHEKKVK
Method in brief: (§1)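 IC50s come from variable-slope dose-response fits of internal-standard-normalized C6-NBD-dihydro-galactosylceramide, measured by RapidFire/MS/MS (ESI negative). Reactions: 1 h, 37 °C, human CGT-expressing CHO lysate (4 μg), 0.001–50 μM compound, 10 μM NBD-dihydro-ceramide, 17.5 μM UDP-galactose, 0.5% DMSO, pH 7.2; 0.01% Tween 80 added for ** values.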

[2] = target: T1, human CGT (ceramide galactosyltransferase), CHO/CGT lysate; assay: CGT enzyme assay, RapidFire/MS/MS readout with 0.01% Tween added (Table 1 ranges with two asterisks **); assay type: biochemical
Method in brief: as §1

[3] = CGT enzyme assay, RapidFire/MS/MS method with 0.01% Tween added (range with two asterisks **)
[4] = CGT enzymatic assay, range with two asterisks (**): RapidFire/MS/MS method with 0.01% Tween added

| IC50 [2, 4] | SMILES | IC50 [1] | IC50 [2, 3] |
| --- | --- | --- | --- |
| 1 to 10 µM | O=C([C@@H](NS(=O)(=O)c1ccc(OCC2CCCCC2)cc1)C(F)(F)c1ccc(-c2ccc(Cl)cc2)cc1)N1CC[C@H]2CNC[C@H]21 [Compound 195-1, N-((R)-1-(4′-chloro-[1,1′-biphenyl]-4-yl)-1,1-difluoro-3-((3aS,6aS)-hexahydropyrrolo[3,4-b]pyrrol-1(2H)-yl)-3-oxopropan-2-yl)-4-(cyclohexylmethoxy)benzenesulfonamide] |  |  |
| 30 to 100 µM | O=C([C@H](NS(=O)(=O)c1ccc(OCC2CCCCC2)cc1)C(F)(F)c1ccc(-c2ccc(Cl)cc2)cc1)N1CC[C@@H]2CNC[C@@H]21 [Compound 195-2, N-((S)-1-(4′-chloro-[1,1′-biphenyl]-4-yl)-1,1-difluoro-3-((3aR,6aR)-hexahydropyrrolo[3,4-b]pyrrol-1(2H)-yl)-3-oxopropan-2-yl)-4-(cyclohexylmethoxy)benzenesulfonamide] |  |  |
| 1 to 10 µM | O=C([C@@H](NS(=O)(=O)c1ccc(OCC2CCCCC2)cc1)C(F)(F)c1ccc(-c2ccc(Cl)cc2)cc1)N1CC[C@@H]2CNC[C@@H]21 [Compound 195-3, N-((R)-1-(4′-chloro-[1,1′-biphenyl]-4-yl)-1,1-difluoro-3-((3aR,6aR)-hexahydropyrrolo[3,4-b]pyrrol-1(2H)-yl)-3-oxopropan-2-yl)-4-(cyclohexylmethoxy)benzenesulfonamide] |  |  |
| 30 to 100 µM | O=C([C@H](NS(=O)(=O)c1ccc(OCC2CCCCC2)cc1)C(F)(F)c1ccc(-c2ccc(Cl)cc2)cc1)N1CC[C@H]2CNC[C@H]21 [Compound 195-4, N-((S)-1-(4′-chloro-[1,1′-biphenyl]-4-yl)-1,1-difluoro-3-((3aS,6aS)-hexahydropyrrolo[3,4-b]pyrrol-1(2H)-yl)-3-oxopropan-2-yl)-4-(cyclohexylmethoxy)benzenesulfonamide] |  |  |
| 1 to 10 µM | NC1CCN(C(=O)[C@@H](NS(=O)(=O)c2ccc(OCC3CCCCC3)cc2)C(F)(F)c2ccc(C3(C(F)(F)F)CC3)cc2)CC1 [Compound 196-1, (R)-N-(3-(4-aminopiperidin-1-yl)-1,1-difluoro-3-oxo-1-(4-(1-(trifluoromethyl)cyclopropyl)phenyl)propan-2-yl)-4-(cyclohexylmethoxy)benzenesulfonamide] |  |  |
| 10 to 30 µM | NC1CCN(C(=O)[C@H](NS(=O)(=O)c2ccc(OCC3CCCCC3)cc2)C(F)(F)c2ccc(C3(C(F)(F)F)CC3)cc2)CC1 [Compound 196-2, (S)-N-(3-(4-aminopiperidin-1-yl)-1,1-difluoro-3-oxo-1-(4-(1-(trifluoromethyl)cyclopropyl)phenyl)propan-2-yl)-4-(cyclohexylmethoxy)benzenesulfonamide] |  |  |
| < 1 µM | COc1cc(C(F)(F)[C@H](NS(=O)(=O)c2ccc3cc(OC4CCCC4)ccc3c2)C(=O)N2C[C@H]3CNC[C@H]3C2)ccc1-c1ccc(Cl)cc1 [Compound 197-1, N-((R)-1-(4′-chloro-2-methoxy-[1,1′-biphenyl]-4-yl)-1,1-difluoro-3-((3aR,6aS)-hexahydropyrrolo[3,4-c]pyrrol-2(1H)-yl)-3-oxopropan-2-yl)-6-(cyclopentyloxy)naphthalene-2-sulfonamide] |  |  |
| 10 to 30 µM | COc1cc(C(F)(F)[C@@H](NS(=O)(=O)c2ccc3cc(OC4CCCC4)ccc3c2)C(=O)N2C[C@H]3CNC[C@H]3C2)ccc1-c1ccc(Cl)cc1 [Compound 197-2, N-((S)-1-(4′-chloro-2-methoxy-[1,1′-biphenyl]-4-yl)-1,1-difluoro-3-((3aR,6aS)-hexahydropyrrolo[3,4-c]pyrrol-2(1H)-yl)-3-oxopropan-2-yl)-6-(cyclopentyloxy)naphthalene-2-sulfonamide] |  |  |
| 1 to 10 µM | NC1CCN(C(=O)[C@@H](NS(=O)(=O)c2ccc(OCC3CCCCC3)cc2)C(F)(F)c2ccc3c(c2)oc2cc(Cl)ccc23)CC1 [Compound 198-1, (R)-N-(3-(4-aminopiperidin-1-yl)-1-(7-chlorodibenzo[b,d]furan-3-yl)-1,1-difluoro-3-oxopropan-2-yl)-4-(cyclohexylmethoxy)benzenesulfonamide] |  |  |
| 30 to 100 µM | NC1CCN(C(=O)[C@H](NS(=O)(=O)c2ccc(OCC3CCCCC3)cc2)C(F)(F)c2ccc3c(c2)oc2cc(Cl)ccc23)CC1 [Compound 198-2, (S)-N-(3-(4-aminopiperidin-1-yl)-1-(7-chlorodibenzo[b,d]furan-3-yl)-1,1-difluoro-3-oxopropan-2-yl)-4-(cyclohexylmethoxy)benzenesulfonamide] |  |  |

The next lines start with the compound.

| SMILES | IC50 [2, 4] | IC50 [1] | IC50 [2, 3] |
| --- | --- | --- | --- |
| NC1CC2CCC(C1)N2C(=O)[C@@H](NS(=O)(=O)c1ccc2cc(OC3CCCC3)ccc2c1)C(F)(F)c1ccc(-c2ccc(Cl)cc2)cc1 (stereo partly drawn) [Compound 48-1, N-((2R)-3-(3-amino-8-azabicyclo[3.2.1]octan-8-yl)-1-(4′-chloro-[1,1′-biphenyl]-4-yl)-1,1-difluoro-3-oxopropan-2-yl)-6-(cyclopentyloxy)naphthalene-2-sulfonamide trifluoroacetate] |  | < 1 µM | < 1 µM |
| NC1CC2CCC(C1)N2C(=O)[C@H](NS(=O)(=O)c1ccc2cc(OC3CCCC3)ccc2c1)C(F)(F)c1ccc(-c2ccc(Cl)cc2)cc1 (stereo partly drawn) [Compound 48-2, N-((2S)-3-(3-amino-8-azabicyclo[3.2.1]octan-8-yl)-1-(4′-chloro-[1,1′-biphenyl]-4-yl)-1,1-difluoro-3-oxopropan-2-yl)-6-(cyclopentyloxy)naphthalene-2-sulfonamide trifluoroacetate] |  | 1 to 10 µM | 1 to 10 µM |
| NC1CCN(C(=O)[C@@H](NS(=O)(=O)c2ccc3cc(OC4CCCC4)ccc3c2)C(F)(F)c2ccc(-c3ccc(Cl)cc3)cc2)CC1 [Compound 91-1, (R)—N-(3-(4-aminopiperidin-1-yl)-1-(4′-chloro-[1,1′-biphenyl]-4-yl)-1,1-difluoro-3-oxopropan-2-yl)-6-(cyclopentyloxy)naphthalene-2-sulfonamide trifluoroacetate] |  | < 1 µM | < 1 µM |
| NC1CCN(C(=O)[C@H](NS(=O)(=O)c2ccc3cc(OC4CCCC4)ccc3c2)C(F)(F)c2ccc(-c3ccc(Cl)cc3)cc2)CC1 [Compound 91-2, (S)—N-(3-(4-aminopiperidin-1-yl)-1-(4′-chloro-[1,1′-biphenyl]-4-yl)-1,1-difluoro-3-oxopropan-2-yl)-6-(cyclopentyloxy)naphthalene-2-sulfonamide trifluoroacetate] |  | 1 to 10 µM | 1 to 10 µM |
| NC1CCN(C(=O)[C@@H](NS(=O)(=O)c2ccc(OCC3CCCCC3)cc2)C(F)(F)c2ccc(-c3ccc(Cl)cc3)cc2)CC1 [Compound 96-1, (R)—N-(3-(4-aminopiperidin-1-yl)-1-(4′-chloro-[1,1′-biphenyl]-4-yl)-1,1-difluoro-3-oxopropan-2-yl)-4-(cyclohexylmethoxy)benzenesulfonamide trifluoroacetate] |  | 1 to 10 µM | 1 to 10 µM |
| NC1CCN(C(=O)[C@H](NS(=O)(=O)c2ccc(OCC3CCCCC3)cc2)C(F)(F)c2ccc(-c3ccc(Cl)cc3)cc2)CC1 [Compound 96-2, (S)—N-(3-(4-aminopiperidin-1-yl)-1-(4′-chloro-[1,1′-biphenyl]-4-yl)-1,1-difluoro-3-oxopropan-2-yl)-4-(cyclohexylmethoxy) benzenesulfonamide trifluoroacetate] |  | 30 to 100 µM | 30 to 100 µM |
| C=C(c1ccc(C(F)(F)[C@H](NS(=O)(=O)c2ccc(OCC3CCCCC3)cc2)C(=O)N2CCC(N)CC2)cc1)C(F)(F)F [Compound 193-1, (R)-N-(3-(4-aminopiperidin-1-yl)-1,1-difluoro-3-oxo-1-(4-(3,3,3-trifluoroprop-1-en-2-yl)phenyl)propan-2-yl)-4-(cyclohexylmethoxy)benzenesulfonamide] | < 1 µM |  |  |
| C=C(c1ccc(C(F)(F)[C@@H](NS(=O)(=O)c2ccc(OCC3CCCCC3)cc2)C(=O)N2CCC(N)CC2)cc1)C(F)(F)F [Compound 193-2, (S)-N-(3-(4-aminopiperidin-1-yl)-1,1-difluoro-3-oxo-1-(4-(3,3,3-trifluoroprop-1-en-2-yl)phenyl)propan-2-yl)-4-(cyclohexylmethoxy)benzenesulfonamide] | 30 to 100 µM |  |  |
| NC1CC2CCC(C1)N2C(=O)[C@@H](NS(=O)(=O)c1ccc(OCC2CCCCC2)cc1)C(F)(F)c1ccc(Cl)s1 (stereo partly drawn) [Compound 194-1, N-((2R)-3-(3-amino-8-azabicyclo[3.2.1]octan-8-yl)-1-(5-chlorothiophen-2-yl)-1,1-difluoro-3-oxopropan-2-yl)-4-(cyclohexylmethoxy)benzenesulfonamide] | 1 to 10 µM |  |  |
| NC1CC2CCC(C1)N2C(=O)[C@H](NS(=O)(=O)c1ccc(OCC2CCCCC2)cc1)C(F)(F)c1ccc(Cl)s1 (stereo partly drawn) [Compound 194-2, N-((2S)-3-(3-amino-8-azabicyclo[3.2.1]octan-8-yl)-1-(5-chlorothiophen-2-yl)-1,1-difluoro-3-oxopropan-2-yl)-4-(cyclohexylmethoxy)benzenesulfonamide] | 30 to 100 µM |  |  |

From patent US20190322676A1, “CERAMIDE GALACTOSYLTRANSFERASE INHIBITORS FOR THE TREATMENT OF DISEASE” (BioMarin Pharmaceutical Inc., priority 2016, published 2019)
